Assay results as given in PMC8772772, “Enantioselective Synthesis and Pharmacological Evaluation of Aza-CGP37157–Lipoic Acid Hybrids for the Treatment of Alzheimer’s Disease” (Antioxidants, 2022).
Where “and” joins values, the source holds several entries; their conditions need not be identical. Equal entries are not always repeated.

Experiments:
[1] = tested on: BV2 microglial cells; assay: Nitrite production reduction in LPS-stimulated BV2 microglial cells (Griess); format: cell-based, mouse; conditions: BV2 + LPS, 0.3–30 µM
Protocol: BV2 microglial cells were seeded at 2 × 10^4 cells/well and treated with compounds at increasing concentrations during 24 h in complete culture media. Then, treatments were removed, and BV2 cells were co-incubated with compounds and LPS (100 ng/mL) (O127:B8, SigmaAldrich, L3129) for additional 18 h in culture media supplemented with 1% FBS. Each plate included non-treated cells as basal nitrite production. Thereafter, nitrite production was determined by using the modified Griess assay. In brief, samples (150 μL) were mixed with DAPSONE (75 μL) (SigmaAldrich, A74807) and NEDA (75 μL) (SigmaAldrich, 33461), and the mixture was incubated at room temperature for 5 min. Light absorption was measured at 550 nm in a microplate reader (SPECTROstar nano, BMG Labtech). Basal nitrite production was referred to as 100% of nitrite production, and all data were normalized to the basal condition. Concentration needed to reduce nitrite production to 50% was calculated from graphical representation of percentage of nitrite production vs. compound concentration, and data were fitted by non-linear regression and interpolated to 50%.
Chronic neuroinflammation is considered a key pathological event in the early stages of AD development. Among immune cells present at CNS, microglia is related to host defense and tissue repair. Nonetheless, chronic neuroinflammation induced by an adverse environment of protein aggregates and exacerbated OS induces a neurotoxic activity of microglia that, finally, leads to neuronal death. […] To this end, we selected the BV2 microglial cell model stimulated by lipopolysaccharide (LPS), a TLR4 agonist that activates the pro-inflammatory response. CGP37157, R- and S-LA; analogue compounds rac-3a and (rac,R)-3b; and precursor derivatives 6 were included with comparative and reference purposes. Microglial BV2 cells were treated with increasing concentrations of the corresponding compound (0.3, 3, 10 and 30 µM) for 24 h following a pre-incubation protocol. Thereafter, treatments were exchanged by a combination of the corresponding compound at desired concentration and LPS (100 ng/mL) during 18 h. At the end of this period, nitrite production was evaluated by the Griess method as an indirect measurement of iNOS enzyme expression and BV2 activation.

[2] = tested on: SH-SY5Y neuroblastoma cells; assay: Neuroprotection against rotenone/oligomycin A oxidative stress in SH-SY5Y cells (MTT); format: cell-based, human; conditions: compound 1 μM 24 h, then compound + R/O (30/10 μM) 24 h; for % Survival: basal = 100, R/O alone 53.4
Protocol: (§1) Human neuroblastoma SH-SY5Y cells were plated in 96-well clear multi-well plates (6 × 10^4 cells/well). The potential neuroprotective activity of compounds against OS was evaluated using the rotenone (30 μM) (SigmaAldrich, R8875) and oligomycin A (10 μM) (SigmaAldrich, 75351) (R/O) toxic mixture. Neuroprotection activity against Tau hyperphosphorylation was evaluated by using the okadaic acid (20 nM) model. Cells were pre-incubated with each compound (1 µM) for 24 h, and then treatments were removed and cells were incubated with compounds (1 µM) in the presence the corresponding toxic for additional 24 h. At the end of the experiments, viability was determined by the MTT method. Data were normalized from cell death induced by the toxic stimuli (considered as 100% cell death). Then, the protection percentages were calculated by subtracting from the death induced by toxic stimuli, the death in the presence of the compound.
(§2) The tetrazolium ring of MTT can be cleaved by active dehydrogenases to produce a formazan precipitate. At the end of the experiments, MTT (SigmaAldrich, M2003) stock solution was added to each well to achieve a final concentration of 0.5 mg/mL. Cells were incubated for 2 h. Thereafter, culture media was removed, and DMSO was added to each well to dissolve the formazan precipitate. Finally, absorbance was measured in a microplate reader (SPECTROstar nano, BMG Labtech) at 570 nm. Absorbance obtained in basal conditions was considered as 100% cell viability.
Thus, we selected a pre-incubation protocol to evaluate their potential neuroprotective capacity based on the NRF2-induction activity and direct antioxidant effect. Compound pre-incubation would induce the expression of antioxidant enzymes regulated by the phase II antioxidant response, thus promoting cells’ survival. The co-incubation period would also evaluate their capacity to trap free radicals produced by intoxicated mitochondria. SH-SY5Y neuroblastoma cells were treated with compounds (1 µM) during 24 h, and then cells were co-incubated with the corresponding compound at the same concentration and the R/O combination (30/10 µM) for additional 24 h. Melatonin, a well-known antioxidant natural neurohormone, was included as a positive control (1 µM). Previously reported racemic derivatives (rac-3a and (rac,R)-3b) and their precursors ((±)-6, R-6 and S-6) were included for comparative purposes at the same concentration.

[3] = tested on: SH-SY5Y neuroblastoma cells; assay: Neuroprotection against okadaic acid hyperphosphorylation in SH-SY5Y cells (MTT); format: cell-based, human; conditions: for % Survival / % Protection: compound 1 μM 24 h, then compound + OA 24 h; for % Survival: basal = 100, OA alone 54.7; for % Protection: n.p = compound does not protect cells
Protocol: as §1, §2
Considering these precedents, we envisaged the evaluation of our compounds in a hyperphosphorylation toxicity model induced by okadaic acid (OA), a protein phosphatase 2A inhibitor [58, 59]. This inhibition causes an imbalance between kinase and phosphatase action, leading to hyperphosphorylation of proteins, in particular, Tau. Thus, treatment of SH-SY5Y neuroblastoma cells with OA is a well-stablished model of Tau hyperphosphorylation. Similarly, to the method used for the OS model, we selected a pre-incubation/co-incubation protocol to evaluate the potential neuroprotection capacity related to the NRF2 induction/antioxidant properties of the compounds. Cells were treated with compounds (±)-6, R-6, S-6 or 7a–d (1 µM) during 24 h; thereafter, cells were co-treated with compounds (1 µM) and OA (20 nM) for a further 24 h. Melatonin was also included as a positive control. Finally, cellular viability was evaluated by the MTT method. […] Finally, the (R,S)-7c diastereomer was not able to afford any protection, a result that might be in line with its low NRF2 induction capacity.

| Structure (SMILES) | anti-inflammatory activity (nitrite production) at the evaluated concentrations [1] | % Protection [2] [%] | % Survival [2] [%] | neuroprotective capacity relative to (S,R)-7b, folds less potent ([3]; OA model, 1 µM) [folds] | % Survival [3] [%] | % Protection [3] |
| --- | --- | --- | --- | --- | --- | --- |
| O=C1CN(CCOC(=O)CCCC[C@@H]2CCSS2)[C@@H](c2ccccc2Cl)c2cc(Cl)ccc2N1 [(R,R)-7d, 2-((R)-7-Chloro-5-(2-chlorophenyl)-2-oxo-1,2,3,5-tetrahydro-4H-benzo[e][1,4]diazepin-4-yl)ethyl 5-((R)-1,2-dithiolan-3-yl)pentanoate] | no significant activity | 50.7 | 77.6 ± 4.4 | 2 | 63.3 ± 8.7 | 21% |
| O=C1CN(CCOC(=O)CCCC[C@@H]2CCSS2)[C@H](c2ccccc2Cl)c2cc(Cl)ccc2N1 [(R,S)-7c, 2-((S)-7-Chloro-5-(2-chlorophenyl)-2-oxo-1,2,3,5-tetrahydro-4H-benzo[e][1,4]diazepin-4-yl)ethyl 5-((R)-1,2-dithiolan-3-yl)pentanoate] | no significant activity | 47.2 | 76.1 ± 2.9 |  | 50.7 ± 15.6 | not protective and n.p |
| O=C1CN(CCOC(=O)CCCC[C@H]2CCSS2)[C@@H](c2ccccc2Cl)c2cc(Cl)ccc2N1 [(S,R)-7b, 2-((R)-7-Chloro-5-(2-chlorophenyl)-2-oxo-1,2,3,5-tetrahydro-4H-benzo[e][1,4]diazepin-4-yl)ethyl 5-((S)-1,2-dithiolan-3-yl)pentanoate] |  | 61.1 | 81.0 ± 4.7 |  | 70.6 ± 10.3 | 41.9% and 40.2% |
| O=C1CN(CCOC(=O)CCCC[C@H]2CCSS2)[C@H](c2ccccc2Cl)c2cc(Cl)ccc2N1 [(S,S)-7a, 2-((S)-7-Chloro-5-(2-chlorophenyl)-2-oxo-1,2,3,5-tetrahydro-4H-benzo[e][1,4]diazepin-4-yl)ethyl 5-((S)-1,2-dithiolan-3-yl)pentanoate] | no significant activity | 43.4 | 74.8 ± 3.2 |  | 63.2 ± 7.6 | 21.2% |
